Results reported in patent publication US6355799B1, “Substituted benzene compounds, process for their preparation, and herbicidal and defoliant compositions containing them” (ISK Americas Incorporated, priority 1997, dated 2002).

Legend:
Assay type in all cases: in vivo
[1] = tested on: redroot pigweed (Amaranthus retroflexus, AMARE); experiment: Pre-emerge test, greenhouse herbicide activity screening
Procedure, shortened: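 Plants grown in 10 cm pots of sandy loam mix received acetone-dissolved compounds through a moving flat-fan nozzle. Doses ranged from 15 to 1000 g ai/ha. Pre-emerge pots were seeded one day earlier, post-emerge pots 8–21 days earlier. Fourteen days on, each pot was graded 0–100 for damage.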

[2] = tested on: barnyardgrass (Echinochloa crus-galli, ECHCG); experiment: as above
Procedure, shortened: (§1)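 Compounds in acetone were track-sprayed at 15–1000 g ai/ha: pre-emergence onto soil sown the previous day, then top-watered to incorporate and later bottom-watered; post-emergence onto 2–3 leaf plants with 0.25% v/v surfactant, bottom-watered only. Ratings on a 0–100 phytotoxicity scale were taken at day 14.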

[3] = tested on: green foxtail (Setaria viridis, SETVI); experiment: as above
Procedure, shortened: as §1

[4] = tested on: ivyleaf morningglory (Ipomoea hederacea, IPOHE); experiment: as above
Procedure, shortened: as §1

[5] = tested on: johnsongrass (Sorghum halepense, SORHA); experiment: as above
Procedure, shortened: as §1

[6] = tested on: lambsquarters (Chenopodium album, CHEAL); experiment: as above
Procedure, shortened: as §1

[7] = tested on: large crabgrass (Digitaria sanguinalis, DIGSA); experiment: as above
Procedure, shortened: as §1

[8] = tested on: sicklepod (Cassia obtusifolia, CASOB); experiment: as above
Procedure, shortened: as §1

[9] = tested on: velvetleaf (Abutilon theophrasti, ABUTH); experiment: as above
Procedure, shortened: as §1

[10] = tested on: field corn (Zea mays L., var. Dekalb 535, CORN); experiment: Pre-emerge test, crop safety
Procedure, shortened: (§2)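 Visual ratings on a 0-100 scale (0 no damage, 100 all plants dead) were taken at 14 days after treatment. Rates of 15-1000 g ai/ha in acetone, 187 l/ha, were sprayed onto soil one day after planting (pre-emerge) or onto 2-3 leaf plants with 0.25% v/v surfactant (post-emerge).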

[11] = tested on: upland rice (Oryza sp., var. Tebonnet, RICE); experiment: Pre-emerge test, crop safety
Procedure, shortened: as §2

[12] = tested on: barnyardgrass (Echinochloa crus-galli, ECHCG); experiment: Post-emerge test, greenhouse herbicide activity screening; conditions: post-emerge, phytotoxicity rating 0-100 at 14 days after application
Procedure, shortened: (§3)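 Compounds in acetone were track-sprayed at 15-1000 g ai/ha (187 l/ha) on sandy loam pots: pre-emerge one day after seeding, post-emerge at 2-3 leaf stage with 0.25% v/v non-ionic surfactant. Phytotoxicity was rated 14 days later on a 0 (no damage) to 100 (complete death) scale.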

[13] = tested on: green foxtail (Setaria viridis, SETVI); experiment: as above; conditions: post-emerge, phytotoxicity rating 0-100 at 14 days after application
Procedure, shortened: as §3

[14] = tested on: ivyleaf morningglory (Ipomoea hederacea, IPOHE); experiment: as above; conditions: post-emerge, phytotoxicity rating 0-100 at 14 days after application
Procedure, shortened: as §3

[15] = tested on: johnsongrass (Sorghum halepense, SORHA); experiment: as above; conditions: post-emerge, phytotoxicity rating 0-100 at 14 days after application
Procedure, shortened: as §3

[16] = tested on: lambsquarters (Chenopodium album, CHEAL); experiment: as above; conditions: post-emerge, phytotoxicity rating 0-100 at 14 days after application
Procedure, shortened: as §3

[17] = tested on: large crabgrass (Digitaria sanguinalis, DIGSA); experiment: as above; conditions: post-emerge, phytotoxicity rating 0-100 at 14 days after application
Procedure, shortened: as §3

[18] = tested on: redroot pigweed (Amaranthus retroflexus, AMARE); experiment: as above; conditions: post-emerge, phytotoxicity rating 0-100 at 14 days after application
Procedure, shortened: as §3

[19] = tested on: sicklepod (Cassia obtusifolia, CASOB); experiment: as above; conditions: post-emerge, phytotoxicity rating 0-100 at 14 days after application
Procedure, shortened: as §3

[20] = tested on: velvetleaf (Abutilon theophrasti, ABUTH); experiment: as above; conditions: post-emerge, phytotoxicity rating 0-100 at 14 days after application
Procedure, shortened: as §3

[21] = tested on: field corn (Zea mays L., var. Dekalb 535, CORN); experiment: Post-emerge test, crop safety; conditions: post-emerge, crop damage rating 0-100 at 14 days after application
Procedure, shortened: (§4)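 Rating: 0–100 visual injury, 14 DAA. Application: acetone, 187 l/ha, 15–1000 g ai/ha, flat-fan track sprayer with nozzle 40–45 cm above soil or canopy. Post-emerge runs used 0.25% v/v surfactant on 2–3 leaf plants.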

[22] = tested on: upland rice (Oryza sp., var. Tebonnet, RICE); experiment: Post-emerge test, crop safety; conditions: post-emerge, crop damage rating 0-100 at 14 days after application
Procedure, shortened: as §4

[23] = 250 g ai/ha, rating scale 0-100, 14 days after application
[24] = pre-emerge, rate 63 g ai/ha, phytotoxicity rating 0-100 at 14 days after application
[25] = crop damage, pre-emerge, rate 63 g ai/ha, phytotoxicity rating 0-100 at 14 days after application

Nc1c(O)c(Cl)cc(F)c1N1C(=O)C2CCCCN2C1=S (single isomer, unassigned) [12-2]
0: Post-emerge Herbicidal Activity SETVI ([13]; 63 g ai/ha) | Post-emerge Herbicidal Activity DIGSA ([17]; 63 g ai/ha)
40: Pre-emerge Herbicidal Activity ECHCG [2, 24] | Pre-emerge Herbicidal Activity CORN [10, 25]
30: Post-emerge Herbicidal Activity ECHCG ([12]; 63 g ai/ha) | Post-emerge Herbicidal Activity AMARE ([18]; 63 g ai/ha)
20: Post-emerge Herbicidal Activity RICE ([22]; 63 g ai/ha)
99: Pre-emerge herbicidal activity, phytotoxicity rating ECHCG [2, 23] | Pre-emerge Herbicidal Activity CASOB [8, 24] | Pre-emerge phytotoxicity rating, crop damage CORN [10, 23] | Pre-emerge phytotoxicity rating, crop damage RICE [11, 23]
95: Pre-emerge Herbicidal Activity SETVI [3, 24] | Pre-emerge Herbicidal Activity IPOHE [4, 24] | Pre-emerge Herbicidal Activity DIGSA [7, 24] | Post-emerge Herbicidal Activity CASOB ([19]; 250 g ai/ha)
100: Pre-emerge herbicidal activity, phytotoxicity rating AMARE [1, 23] | Pre-emerge Herbicidal Activity AMARE [1, 24] | Pre-emerge herbicidal activity, phytotoxicity rating SETVI [3, 23] | Pre-emerge herbicidal activity, phytotoxicity rating IPOHE [4, 23] | Pre-emerge herbicidal activity, phytotoxicity rating SORHA [5, 23] | Pre-emerge herbicidal activity, phytotoxicity rating CHEAL [6, 23] | Pre-emerge Herbicidal Activity CHEAL [6, 24] | Pre-emerge herbicidal activity, phytotoxicity rating DIGSA [7, 23] | Pre-emerge herbicidal activity, phytotoxicity rating CASOB [8, 23] | Pre-emerge herbicidal activity, phytotoxicity rating ABUTH [9, 23] | Pre-emerge Herbicidal Activity ABUTH [9, 24] | Post-emerge Herbicidal Activity IPOHE ([14]; 250 g ai/ha) | Post-emerge Herbicidal Activity CHEAL ([16]; 63 g ai/ha) | Post-emerge Herbicidal Activity CHEAL ([16]; 250 g ai/ha) | Post-emerge Herbicidal Activity AMARE ([18]; 250 g ai/ha) | Post-emerge Herbicidal Activity ABUTH ([20]; 63 g ai/ha) | Post-emerge Herbicidal Activity ABUTH ([20]; 250 g ai/ha) | Post-emerge Herbicidal Activity CORN ([21]; 250 g ai/ha)
70: Post-emerge Herbicidal Activity DIGSA ([17]; 250 g ai/ha)
10: Post-emerge Herbicidal Activity SORHA ([15]; 63 g ai/ha) | Post-emerge Herbicidal Activity CORN ([21]; 63 g ai/ha)
80: Post-emerge Herbicidal Activity ECHCG ([12]; 250 g ai/ha) | Post-emerge Herbicidal Activity RICE ([22]; 250 g ai/ha)
90: Pre-emerge Herbicidal Activity SORHA [5, 24] | Post-emerge Herbicidal Activity IPOHE ([14]; 63 g ai/ha) | Post-emerge Herbicidal Activity SORHA ([15]; 250 g ai/ha)
50: Pre-emerge Herbicidal Activity RICE [11, 25] | Post-emerge Herbicidal Activity SETVI ([13]; 250 g ai/ha) | Post-emerge Herbicidal Activity CASOB ([19]; 63 g ai/ha)
